Laboratory results: ChEMBL document CHEMBL1201862, “PubChem BioAssay data set” (2004)
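Results reflect a 48-hour exposure of cells in 96-well plates to compound at five concentrations. At the GI50, growth is halved.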 Activity calls are given as the source filed them. Cut-off read from the data, not from the text of the source: active = GI50 up to about 1.1 µM and inactive = higher.

Columns and labels:
Assay in all cases: growth of human tumour cells (NCI), 48 h
UO-31 = tested on: UO-31
HCC 2998 = tested on: HCC 2998
RPMI-8226 = tested on: RPMI-8226
KM12 = tested on: KM12
ACHN = tested on: ACHN
SF-268 = tested on: SF-268
COLO 205 = tested on: COLO 205
IGROV-1 = tested on: IGROV-1
UACC-62 = tested on: UACC-62
MDA-MB-435 = tested on: MDA-MB-435
NCI-H460 = tested on: NCI-H460
SNB-75 = tested on: SNB-75
OVCAR-5 = tested on: OVCAR-5
OVCAR-8 = tested on: OVCAR-8
LOX IMVI = tested on: LOX IMVI
NCI-H226 = tested on: NCI-H226
CCRF-CEM = tested on: CCRF-CEM
Malme-3M = tested on: Malme-3M

Measured: GI50

COc1c(O)cc2ccnc3c2c1N(C)C=C3
inactive: UO-31 39.4 µM | HCC 2998 > 100 µM | RPMI-8226 > 100 µM | KM12 > 100 µM | ACHN 56.1 µM | SF-268 > 100 µM | COLO 205 94.6 µM | IGROV-1 > 100 µM | UACC-62 > 100 µM | MDA-MB-435 > 100 µM | NCI-H460 64.6 µM | SNB-75 > 100 µM | OVCAR-5 > 100 µM | OVCAR-8 95.1 µM | LOX IMVI > 100 µM | NCI-H226 > 100 µM

c1ccc2c[n+](CCCC[n+]3ccc4ccccc4c3)ccc2c1
inactive: CCRF-CEM > 100 µM | HCC 2998 > 100 µM | RPMI-8226 > 100 µM | KM12 > 100 µM | ACHN > 100 µM | SF-268 > 100 µM | COLO 205 > 100 µM | IGROV-1 > 100 µM | UACC-62 > 100 µM | MDA-MB-435 > 100 µM | NCI-H460 > 100 µM | SNB-75 > 100 µM | OVCAR-5 > 100 µM | OVCAR-8 > 100 µM | LOX IMVI > 100 µM | NCI-H226 > 100 µM

O=C1CC(c2ccccc2Cl)Oc2ccccc21 (stereo not drawn)
inactive: CCRF-CEM 33.9 µM | UO-31 57.5 µM | HCC 2998 71.1 µM | RPMI-8226 17.5 µM | KM12 27 µM | SF-268 37.2 µM | COLO 205 25.4 µM | IGROV-1 21.4 µM | UACC-62 45.3 µM | MDA-MB-435 18.5 µM | NCI-H460 28.8 µM | SNB-75 22.7 µM | OVCAR-8 26.4 µM | LOX IMVI 40.4 µM | NCI-H226 3.84 µM

O=C1CC(C(=O)N2CCCCC2)n2c(=O)n(-c3ccccc3)c(=O)n2C1 (stereo not drawn)
inactive: UO-31 > 100 µM | HCC 2998 > 100 µM | KM12 > 100 µM | ACHN > 100 µM | Malme-3M > 100 µM | SF-268 > 100 µM | COLO 205 > 100 µM | IGROV-1 > 100 µM | UACC-62 > 100 µM | NCI-H460 > 100 µM | SNB-75 > 100 µM | OVCAR-5 > 100 µM | OVCAR-8 > 100 µM | LOX IMVI > 100 µM | NCI-H226 > 100 µM

O=c1ccn(C2OC(CO)C(P(=O)(O)O)C2O)c(=O)[nH]1 (stereo not drawn)
inactive: CCRF-CEM > 100 µM | UO-31 > 100 µM | HCC 2998 > 100 µM | RPMI-8226 > 100 µM | KM12 > 100 µM | ACHN > 100 µM | Malme-3M > 100 µM | SF-268 > 100 µM | IGROV-1 > 100 µM | UACC-62 > 100 µM | NCI-H460 > 100 µM | SNB-75 > 100 µM | OVCAR-5 > 100 µM | OVCAR-8 > 100 µM | LOX IMVI > 100 µM | NCI-H226 > 100 µM

CN1CCc2c(sc3nc(Nc4ccccc4)n(N)c(=O)c23)C1
inactive: CCRF-CEM 59.2 µM | UO-31 > 100 µM | RPMI-8226 83 µM | KM12 > 100 µM | ACHN > 100 µM | SF-268 > 100 µM | COLO 205 42.8 µM | IGROV-1 > 100 µM | UACC-62 38.4 µM | NCI-H460 > 100 µM | OVCAR-5 > 100 µM | OVCAR-8 > 100 µM | NCI-H226 > 100 µM

O=C(/C=C/c1ccccc1)CCC1C(=O)NC(=S)NC1=O
inactive: UO-31 > 100 µM | HCC 2998 > 100 µM | ACHN > 100 µM | SF-268 > 100 µM | COLO 205 > 100 µM | UACC-62 > 100 µM | MDA-MB-435 > 100 µM | NCI-H460 > 100 µM | OVCAR-5 > 100 µM | OVCAR-8 > 100 µM | LOX IMVI > 100 µM | NCI-H226 > 100 µM
